# Source: US10570179B2, “Substituted urea depsipeptide analogs as activators of the CLPP endopeptidase” (priority 2016, dated 2020)
# Like-named read-outs stand apart in the source and are kept apart here. Numbered stars: 1 amine (or outer) side, 2 acyl side, 3 side chain; on linkers, the order of the positions; unused ones are H or OH. Bridge positions count the residues as written; N and C are the ends. Square brackets hold non-standard residues; d marks the D form. Peptide text beside a SMILES is read from it. * marks the point of attachment. Piperazine(2S-CO,4-Me) = CN1CCN[C@H](C(=O)O)C1; NH(1,3-benzodioxol-5-yl) = c1cc2c(cc1N*)OCO2; Phe(3,5-F2) = N[C@@H](Cc1cc(F)cc(F)c1)C(=O)O; NH(1-Me-indolin-5-yl) = CN1CCc2cc(N*)ccc21; Morpholine(3S-CO) = O=C(O)[C@@H]1COCCN1; Phe(3-Me) = Cc1cccc(C[C@H](N)C(=O)O)c1; NH(4-Cl-2-F-phenyl) = Fc1cc(Cl)ccc1N*; Pro(4R-Me) = C[C@H]1CN[C@H](C(=O)O)C1; X1 = O=C([C@@H]1CSCCN1[*:1])[*:2]; Hyp = O=C(O)[C@@H]1C[C@@H](O)CN1; NH(4-Et-phenyl) = CCc1ccc(N*)cc1; NH(4-Me-phenyl) = Cc1ccc(N*)cc1; aThr = C[C@H](O)[C@H](N)C(=O)O; Pip = O=C(O)[C@@H]1CCCCN1; X3 = c1cc2c(cc1N*)OCCO2; CO = O=C([*:1])[*:2]
# Legend:
# Solubility determination = assay type: physicochemical; details: for solubility kinetic at 10 min: 22 °C, aqueous buffer, kinetic from dmso stock
# Procedure, shortened: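 DMSO stock spiked into DPBS at 100 µM final, in triplicate, shaken 10 min, then centrifuged 20 min at 22 °C. Supernatant quantified by UPLC-UV and single-ion-recording MS against DMSO calibration standards (0.098–100 µM), using 1/x²-weighted linear regression.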
# Plasma stability assay = assay type: in vitro ADME, human
# Procedure, shortened: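 Compounds at 10 μM final in human or mouse plasma, incubated at 37 °C and sampled at 0, 3, 24 and 48 h in triplicate. Reactions quenched with cold acetonitrile containing warfarin internal standard; parent measured by LC-MS. Half-life from least-squares first-order fit.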
# [1] = Microsomal metabolic stability; assay type: in vitro ADME, mouse
# Procedure, shortened: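 CD-1 mouse liver microsomes (0.6381 mg/mL protein microsomal solution, 0.1 M potassium phosphate pH 7.4 with EDTA) were incubated with compound and an NADPH-regenerating system at 37 °C, in triplicate. Acetonitrile/warfarin quench at 0, 15, 30, 60, 120 and 240 min, then LCMS. Half-life came from a first-order least-squares fit.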
# [2] = solubility in DPBS, 100 μM test samples, LCMS, read-out: LCMS
# [3] = plasma stability half-life, human plasma, 37° C.
# [4] = microsomal metabolic stability half-life, mouse liver microsomes
Structure (SMILES),μsol (μM) (Solubility determination),solubility kinetic at 10 min (Solubility determination) [µM],"Human (Plasma stability assay; human, 10 μM) [h]","Mouse ([1]; CD-1, mouse, pH 7.4)",solubility kinetic at 10 min (Solubility determination; [2]) [µM],μsol (μM) (Solubility determination; solubility) [µM],Human (Plasma stability assay; [3]) [h],"Mouse [1, 4]",μsol (μg/mL) (Solubility determination; solubility) [µg/mL],Human (hr) (Plasma stability assay; [3])
"Cc1cccc(C[C@H](NC(=O)Nc2ccc(Cl)cc2F)C(=O)N[C@@H]2C(=O)N3CCC[C@H]3C(=O)N3CCSC[C@H]3C(=O)N[C@@H](C)C(=O)N3C[C@H](C)C[C@H]3C(=O)O[C@H]2C)c1 [Compound 38, (S)-2-(3-(4-CHLORO-2-FLUOROPHENYL)UREIDO)-3-(M-TOLYL)-N-((6AS,12S,13S,15AS,17R,21S,23AR)-13,17,21-TRIMETHYL-6,11,15,20,23-PENTAOXOOCTADECAHYDRO-6H,11H,15H-DIPYRROLO[2,1-C:2′,1′-L][1,4]THIAZINO[3,4-I][1]OXA[4,7,10,13]TETRAAZACYCLOHEXADECIN-12-YL)PROPANAMIDE] ({NH(4-Cl-2-F-phenyl)-CO}-[Phe(3-Me)][aThr]P[X1]A[Pro(4R-Me)]; ester 2-C)",1.7 ± .70 µM,0.011 ± 0.011,>50,1.25 ± .253 h,,,,,,
"CCc1ccc(NC(=O)N[C@@H](Cc2cccc(C)c2)C(=O)N[C@H]2COC(=O)[C@@H]3C[C@@H](C)CN3C(=O)[C@H](C)NC(=O)[C@@H]3CN(C)CCN3C(=O)[C@@H]3CCCN3C2=O)cc1 [Compound 16, (S)-2-(3-(4-ETHYLPHENYL)UREIDO)-3-(M-TOLYL)-N-((6AS,12S,15AS,17R,21S,23AS)-2,17,21-TRIMETHYL-6,11,15,20,23-PENTAOXOOCTADECAHYDRO-2H,6H,11H,15H-PYRAZINO[2,1-I]DIPYRROLO[2,1-C:2′,1′-L][1]OXA[4,7,10,13]TETRAAZACYCLOHEXADECIN-12-YL)PROPANAMIDE] ({NH(4-Et-phenyl)-CO}-[Phe(3-Me)]SP[Piperazine(2S-CO,4-Me)]A[Pro(4R-Me)]; ester 2-C)",47.4 ± 5.7 µM,53.2 ± 6.5,>50,1.80 ± 0.09 h,,,,,,
"Cc1ccc(NC(=O)N[C@@H](Cc2cccc(C)c2)C(=O)N[C@@H]2C(=O)N3C[C@H](O)C[C@H]3C(=O)N3CCCC[C@H]3C(=O)N[C@@H](C)C(=O)N3C[C@H](C)C[C@H]3C(=O)O[C@H]2C)cc1 [Compound 26, (S)—N-((2R,6S,8AS,14AS,16R,20S,21S,23AS)-16-HYDROXY-2,6,21-TRIMETHYL-5,8,14,19,23-PENTAOXOOCTADECAHYDRO-1H,5H,14H,19H-PYRIDO[2,1-I]DIPYRROLO[2,1-C:2′,1′-L][1]OXA[4,7,10,13]TETRAAZACYCLOHEXADECIN-20-YL)-3-(M-TOLYL)-2-(3-(P-TOLYL)UREIDO)PROPANAMIDE] ({NH(4-Me-phenyl)-CO}-[Phe(3-Me)][aThr][Hyp][Pip]A[Pro(4R-Me)]; ester 2-C)",,,,,45.3 ± 1.89,47.7 ± 0.4,>50,2.49 ± 0.35 h,,
"Cc1cccc(C[C@H](NC(=O)Nc2ccc(Cl)cc2F)C(=O)N[C@@H]2C(=O)N3CCC[C@H]3C(=O)N3CCN(C)C[C@H]3C(=O)N[C@@H](C)C(=O)N3C[C@H](C)C[C@H]3C(=O)O[C@H]2C)c1 [Compound 11, (S)-2-(3-(4-CHLORO-2-FLUOROPHENYL)UREIDO)-N-((6AS,12S,13S,15AS,17R,21S,23AS)-2,13,17,21-TETRAMETHYL-6,11,15,20,23-PENTAOXOOCTADECAHYDRO-2H,6H,11H,15H-PYRAZINO[2,1-I]DIPYRROLO[2,1-C:2′,1′-L][1]OXA[4,7,10,13]TETRAAZACYCLOHEXADECIN-12-YL)-3-(M-TOLYL)PROPANAMIDE] ({NH(4-Cl-2-F-phenyl)-CO}-[Phe(3-Me)][aThr]P[Piperazine(2S-CO,4-Me)]A[Pro(4R-Me)]; ester 2-C)",32.2 ± 1.4 µM,43.2 ± 3.14,44.21,0.67 ± 0.07 h,,,,,,
"C[C@@H]1C[C@H]2C(=O)O[C@@H](C)[C@H](NC(=O)[C@H](Cc3cc(F)cc(F)c3)NC(=O)Nc3ccc4c(c3)CCN4C)C(=O)N3CCC[C@H]3C(=O)N3CCOC[C@H]3C(=O)N[C@@H](C)C(=O)N2C1 [Compound 32] ({NH(1-Me-indolin-5-yl)-CO}-[Phe(3,5-F2)][aThr]P[Morpholine(3S-CO)]A[Pro(4R-Me)]; ester 2-C)",,,,,71.5 ± 1.5,73.4 ± 3.4,,0.95 ± .95 h,62.5 ± 2.1,>>48 hr
"Cc1cccc(C[C@H](NC(=O)Nc2ccc3c(c2)OCCO3)C(=O)N[C@@H]2C(=O)N3C[C@H](O)C[C@H]3C(=O)N3CCOC[C@H]3C(=O)N[C@@H](C)C(=O)N3C[C@H](C)C[C@H]3C(=O)O[C@H]2C)c1 [Compound 27, (S)-2-(3-(2,3-DIHYDROBENZO[B][1,4]DIOXIN-6-YL)UREIDO)-N-((6AS,8R,12S,13S,15AS,17R,21S,23AS)-8-HYDROXY-13,17,21-TRIMETHYL-6,11,15,20,23-PENTAOXOOCTADECAHYDRO-6H,11H,15H-[1,4]OXAZINO[3,4-I]DIPYRROLO[2,1-C:2′,1′-L][1]OXA[4,7,10,13]TETRAAZACYCLOHEXADECIN-12-YL)-3-(M-TOLYL)PROPANAMIDE] ({X3-CO}-[Phe(3-Me)][aThr][Hyp][Morpholine(3S-CO)]A[Pro(4R-Me)]; ester 2-C)",,45.6 ± 5.6,>50,0.79 ± .795 h,,,,,,
"Cc1cccc(C[C@H](NC(=O)Nc2ccc3c(c2)OCO3)C(=O)N[C@H]2COC(=O)[C@@H]3C[C@@H](C)CN3C(=O)[C@H](C)NC(=O)[C@@H]3CN(C)CCN3C(=O)[C@@H]3CCCN3C2=O)c1 [Compound 17, (S)-2-(3-(BENZO[D][1,3]DIOXOL-5-YL)UREIDO)-3-(M-TOLYL)-N-((6AS,12S,15AS,17R,21S,23AS)-2,17,21-TRIMETHYL-6,11,15,20,23-PENTAOXOOCTADECAHYDRO-2H,6H,11H,15H-PYRAZINO[2,1-I]DIPYRROLO[2,1-C:2′,1′-L][1]OXA[4,7,10,13]TETRAAZACYCLOHEXADECIN-12-YL)PROPANAMIDE] ({NH(1,3-benzodioxol-5-yl)-CO}-[Phe(3-Me)]SP[Piperazine(2S-CO,4-Me)]A[Pro(4R-Me)]; ester 2-C)",71.1 ± 0.7 µM,64.6 ± 2,51.18 ± 6.0,4.83 ± 0.46 h,,,,,,
"CCc1ccc(NC(=O)N[C@@H](Cc2cccc(C)c2)C(=O)N[C@@H]2C(=O)N3C[C@H](O)C[C@H]3C(=O)N3CCOC[C@H]3C(=O)N[C@@H](C)C(=O)N3C[C@H](C)C[C@H]3C(=O)O[C@H]2C)cc1 [Compound 24, (S)-2-(3-(4-ETHYLPHENYL)UREIDO)-N-((6AS,8R,12S,13S,15AS,17R,21S,23AS)-8-HYDROXY-13,17,21-TRIMETHYL-6,11,15,20,23-PENTAOXOOCTADECAHYDRO-6H,11H,15H-[1,4]OXAZINO[3,4-I]DIPYRROLO[2,1-C:2′,1′-L][1]OXA[4,7,10,13]TETRAAZACYCLOHEXADECIN-12-YL)-3-(M-TOLYL)PROPANAMIDE] ({NH(4-Et-phenyl)-CO}-[Phe(3-Me)][aThr][Hyp][Morpholine(3S-CO)]A[Pro(4R-Me)]; ester 2-C)",48.4 ± 0.7 µM,43.7 ± 0.9,90.86,1.03 ± 0.05 h,,,,,,
